# Experimental data as given in patent US20040022789A1, “Methods and compositions for treating T cell mediated inflammatory/autoimmune diseases and disorders in subjects having a glucocorticoid regulation deficiency” (The Washington University, priority 2002, published 2004).
# Columns and labels:
# Assay type in all cases: in vivo
# [1] = system: control mice; experiment: Mortality after anti-CD3ε antibody in control mice pre-treated with mifepristone (GR antagonist)
# Experimental: (§1) Animal husbandry and plasma sampling: Mice were housed on a 12 h/12 h light/dark cycle with ad libitum access to rodent chow. Blood for measurement of corticosterone and cytokines was obtained by rapid retroorbital phlebotomy into heparinized capillary tubes with a total time from first handling the animal to completion of bleeding not exceeding 30 s. Plasma was separated by centrifugation and stored at −80° C. until assay. Unless otherwise noted, all mice used were 6-10 weeks old and of a C57BL/6×129/Sv genetic background.
# (§2) Pharmacologic and antibody treatment: Mice were injected intraperitoneally 100 μg anti-CD3p antibody (145-2C11) diluted in 250 μl PBS. Dexamethasone-treated mice were injected intraperitoneally with 200 μg dexamethasone phosphate just prior to and eight hours after anti-CD3ε antibody challenge. Neutralizing anti-IFNγ antibody (H22, 50 μg) was injected intraperitoneally one day before anti-CD3ε antibody administration as described previously. See, e.g., Ferran, C. et al., Eur. J. Immunol, 21:2349-2353 (1991). Mifepristone (RU 486, Sigma) was dissolved in 100% ethanol (50 mg/ml). Mifepristone-treated mice were given 0.5 mg (diluted in sesame oil) s.c. the night before and one hour prior to inflammatory challenge. […]
# [2] = system: IL-2; experiment: Plasma IL-2 after anti-CD3ε antibody (ELISA); conditions: TGRko mice; dexamethasone 200 μg before and 8 hours after anti-CD3ε antibody
# Experimental: as §1
# Cytokine Measurements: Plasma cytokines were measured according to manufacturer's instructions (Pharmingen).
# as §2
# [3] = system: adrenalectomized control mice; experiment: Mortality after anti-CD3ε antibody in adrenalectomized control mice
# Experimental: Adrenalectomy: Mice were adrenalectomized as previously described and rested one week before being subjected to experimentation. See, e.g., Muglia, L. J. et al, J. Clin. Invest., 105:1269-1277 (2000).
# Pharmacologic and antibody treatment: Mice were injected intraperitoneally 100 μg anti-CD3p antibody (145-2C11) diluted in 250 μl PBS. Dexamethasone-treated mice were injected intraperitoneally with 200 μg dexamethasone phosphate just prior to and eight hours after anti-CD3ε antibody challenge. Neutralizing anti-IFNγ antibody (H22, 50 μg) was injected intraperitoneally one day before anti-CD3ε antibody administration as described previously. See, e.g., Ferran, C. et al., Eur. J. Immunol, 21:2349-2353 (1991). Mifepristone (RU 486, Sigma) was dissolved in 100% ethanol (50 mg/ml). Mifepristone-treated mice were given 0.5 mg (diluted in sesame oil) s.c. the night before and one hour prior to inflammatory challenge. Cox-2 selective inhibitor-treated mice were given 300 μg of either SC-236 or NS-398 suspended in PBS/1% Tween-80 or vehicle twice a day for two days by oral gavage as previously described by Gross, G. et al, Am J. Physiol. Regul. Integr. Comp. Physiol., 278:R^1415-R^1423 (2000).
# [4] = system: TGRko mice; experiment: Mortality of TGRko mice after polyclonal T cell activation with anti-CD3ε antibody; conditions: 100 μg anti-CD3ε antibody i.p., treatment before (and after) challenge
# Experimental: as §1
# Generation of TGRko mice: To build a TGRko targeting vector (pGRloxPneo), a loxP site was inserted into the unique Sac I site in the GR gene region upstream of exon 2 between exons 1B and 1C. A PGKneo (gene encoding for resistance to neomycin) cassette was then subcloned containing flanking loxP sites into intron 2 of the GR gene using oligonucleotide linkers. To obtain ES clones having replaced one copy of the endogenous murine GR locus with the GRloxPneo allele, TC1 ES cells were electroporated in the presence of linearized pGRloxPneo as has previously been described (See, e.g., Muglia, L. J. et al., J. Clin. Invest., 93:2066-2072 (1994)). DNA from 87 G418 resistant embryonic stem cell (ES) clones was analyzed by Southern blot, employing a probe external to the flanking regions within our targeting vector. […]
structure (smiles),measurement,setting,value
CC#C[C@]1(O)CC[C@H]2[C@@H]3CCC4=CC(=O)CCC4=C3[C@@H](c3ccc(N(C)C)cc3)C[C@@]21C [mifepristone],susceptibility to the lethal effects of T cell activation,"[1]; control mice, mifepristone+vehicle (m/v) compared to vehicle controls (v/v)",significantly more susceptible
C[C@@H]1C[C@H]2[C@@H]3CCC4=CC(=O)C=C[C@]4(C)[C@@]3(F)[C@@H](O)C[C@]2(C)[C@@]1(O)C(=O)CO [dexamethasone],plasma IL-2,[2],no significant effect
NS(=O)(=O)c1ccc(-n2nc(C(F)(F)F)cc2-c2ccc(Cl)cc2)cc1 [SC-236],mice died within eight hours of anti-CD3ε antibody treatment,"[3]; ADX+SC-236 (ADX+vehicle 4/5, Sham operated+vehicle 0/3)",2/6
same,rescue from mortality,"[3]; adrenalectomized control mice, shorter timescale",essentially the same degree of rescue
same,mortality / lethality after anti-CD3ε antibody administration,[4],Protection from lethality
same,protection from mortality,[1]; control mice treated with mifepristone+SC-236 (m/s) compared to vehicle-treated counterparts,significantly protected
